According to US10533044B2, “Integrin Antagonists” (The General Hospital Corporation, priority 2014, dated 2020):
Positions of bridges follow the written chain, without caps; N, C: chain ends. Non-standard residues stand in square brackets, D forms with d. Residues, ends and D or L forms follow the SMILES beside them. hArg = N=C(N)NCCCC[C@H](N)C(=O)O; Mpa = O=C(O)CCS

Columns and labels:
αVβ3^N/S [1] = biological target: T1, αVβ3^N/S (Homo sapiens, UniProt P05106+P06756, N365S); assay: biochemical; settings: IC50, inhibition of fibrinogen binding to αVβ3^N/S, HEK293 cells, constitutively active αVβ3^N/S
αVβ3 = assay: AP5 LIBS expression on αVβ3^N/S or Mn2+-activated αVβ3 in presence of R-epti-D; type: cell-based; settings: αVβ3^N/S in Ca2+/Mg2+ or Mn2+-activated αVβ3; preliminary study
Protocol: FIG. 16. […] One experiment was done under each condition. […] Common residues are in black. […] Spheres represent the metal ion at MIDAS.
K562-αVβ3 cells, transiently transfected HEK293T or αVβ3^+M21 cells (0.5×10^6 in 100 μl WB) were incubated in the absence or presence of unlabeled soluble FN10 (5 μg) in Ca^2+/Mg^2+ or in Mn^2+ (30 min; at 25° C.). Alexa647-labeled AP5 Fab (plus Alexa488-labeled AP3, when HEK293T cells were used), unlabeled anti-LIBS-1 (all to 10 μg/ml) or LIBS-6 ascites (to 1:50 dilution) were added, and the cells incubated for an additional 30 min before washing. APC-labeled goat anti-mouse Fc-specific antibody was added to anti-LIBS-1- or anti-LIBS-6-bound M21 cells, cells were incubated for an additional 30 min at 4° C. then washed, resuspended, fixed in 4% paraformaldehyde and analyzed by flow cytometry. LIBS epitope expression was measured and expressed as MFI (in case of K562-αVβ3 or M21 cells) and normalized (in case of HEK293T cells) by dividing its MFI by the MFI for Alexa488-labeled AP3, and multiplied by 100.

platelet integrin αIIbβ3 = platelet integrin αIIbβ3 (Homo sapiens, UniProt P05106+P08514); settings: parenteral use; cited from earlier work
αVβ3^N/S [2] = biological target: T1, αVβ3^N/S

T1 sequence (P06756 31-889 limits assumed): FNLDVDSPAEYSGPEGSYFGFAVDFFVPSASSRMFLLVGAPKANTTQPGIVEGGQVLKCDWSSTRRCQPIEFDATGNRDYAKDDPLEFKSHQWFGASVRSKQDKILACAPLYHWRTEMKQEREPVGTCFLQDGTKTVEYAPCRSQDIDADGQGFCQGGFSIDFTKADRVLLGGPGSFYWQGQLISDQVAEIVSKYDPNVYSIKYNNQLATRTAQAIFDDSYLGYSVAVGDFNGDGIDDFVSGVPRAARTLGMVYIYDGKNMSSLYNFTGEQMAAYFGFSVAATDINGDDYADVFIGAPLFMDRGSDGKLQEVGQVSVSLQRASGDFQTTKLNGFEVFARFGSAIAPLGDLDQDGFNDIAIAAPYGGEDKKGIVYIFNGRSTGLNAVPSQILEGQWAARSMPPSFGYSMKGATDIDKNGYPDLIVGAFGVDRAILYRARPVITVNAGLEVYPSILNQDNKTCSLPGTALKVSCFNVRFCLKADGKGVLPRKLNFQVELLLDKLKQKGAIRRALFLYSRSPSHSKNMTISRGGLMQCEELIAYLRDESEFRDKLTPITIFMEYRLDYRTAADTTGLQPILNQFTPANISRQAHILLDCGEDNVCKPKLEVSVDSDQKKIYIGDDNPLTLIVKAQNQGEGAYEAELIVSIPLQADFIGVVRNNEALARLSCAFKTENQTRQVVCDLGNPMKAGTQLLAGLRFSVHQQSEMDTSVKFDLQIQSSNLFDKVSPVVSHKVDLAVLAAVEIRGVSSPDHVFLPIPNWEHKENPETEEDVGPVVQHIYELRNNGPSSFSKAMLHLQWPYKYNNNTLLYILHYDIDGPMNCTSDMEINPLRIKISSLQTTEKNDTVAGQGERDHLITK
T1 sequence (P06756 891-1048 partner limits assumed): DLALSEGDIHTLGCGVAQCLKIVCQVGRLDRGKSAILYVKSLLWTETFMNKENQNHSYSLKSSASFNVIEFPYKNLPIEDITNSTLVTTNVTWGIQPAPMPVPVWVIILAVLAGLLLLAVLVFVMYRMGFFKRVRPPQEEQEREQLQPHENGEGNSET
T1 sequence (P05106 27-788 N365S): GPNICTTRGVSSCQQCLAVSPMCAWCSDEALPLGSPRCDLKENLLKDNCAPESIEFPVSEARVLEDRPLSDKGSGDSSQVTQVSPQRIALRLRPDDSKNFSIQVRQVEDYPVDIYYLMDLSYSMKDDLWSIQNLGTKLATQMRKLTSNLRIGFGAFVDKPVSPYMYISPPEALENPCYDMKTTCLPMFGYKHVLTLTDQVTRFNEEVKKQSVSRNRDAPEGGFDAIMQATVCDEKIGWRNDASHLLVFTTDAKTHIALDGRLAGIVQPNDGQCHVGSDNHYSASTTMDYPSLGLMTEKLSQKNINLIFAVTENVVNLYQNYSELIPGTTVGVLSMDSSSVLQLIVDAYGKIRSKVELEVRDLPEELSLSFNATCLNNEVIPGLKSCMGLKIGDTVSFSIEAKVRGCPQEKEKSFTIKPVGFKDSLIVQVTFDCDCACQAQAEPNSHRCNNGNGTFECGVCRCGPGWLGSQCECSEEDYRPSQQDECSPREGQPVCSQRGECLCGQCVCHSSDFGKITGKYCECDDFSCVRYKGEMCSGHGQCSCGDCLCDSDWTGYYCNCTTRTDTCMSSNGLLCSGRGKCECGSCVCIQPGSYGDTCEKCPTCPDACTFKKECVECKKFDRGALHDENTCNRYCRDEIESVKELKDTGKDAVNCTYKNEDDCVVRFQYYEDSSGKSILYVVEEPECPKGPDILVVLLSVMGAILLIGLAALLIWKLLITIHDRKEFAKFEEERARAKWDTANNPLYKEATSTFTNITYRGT
platelet integrin αIIbβ3, sequence (P08514 32-887 limits assumed): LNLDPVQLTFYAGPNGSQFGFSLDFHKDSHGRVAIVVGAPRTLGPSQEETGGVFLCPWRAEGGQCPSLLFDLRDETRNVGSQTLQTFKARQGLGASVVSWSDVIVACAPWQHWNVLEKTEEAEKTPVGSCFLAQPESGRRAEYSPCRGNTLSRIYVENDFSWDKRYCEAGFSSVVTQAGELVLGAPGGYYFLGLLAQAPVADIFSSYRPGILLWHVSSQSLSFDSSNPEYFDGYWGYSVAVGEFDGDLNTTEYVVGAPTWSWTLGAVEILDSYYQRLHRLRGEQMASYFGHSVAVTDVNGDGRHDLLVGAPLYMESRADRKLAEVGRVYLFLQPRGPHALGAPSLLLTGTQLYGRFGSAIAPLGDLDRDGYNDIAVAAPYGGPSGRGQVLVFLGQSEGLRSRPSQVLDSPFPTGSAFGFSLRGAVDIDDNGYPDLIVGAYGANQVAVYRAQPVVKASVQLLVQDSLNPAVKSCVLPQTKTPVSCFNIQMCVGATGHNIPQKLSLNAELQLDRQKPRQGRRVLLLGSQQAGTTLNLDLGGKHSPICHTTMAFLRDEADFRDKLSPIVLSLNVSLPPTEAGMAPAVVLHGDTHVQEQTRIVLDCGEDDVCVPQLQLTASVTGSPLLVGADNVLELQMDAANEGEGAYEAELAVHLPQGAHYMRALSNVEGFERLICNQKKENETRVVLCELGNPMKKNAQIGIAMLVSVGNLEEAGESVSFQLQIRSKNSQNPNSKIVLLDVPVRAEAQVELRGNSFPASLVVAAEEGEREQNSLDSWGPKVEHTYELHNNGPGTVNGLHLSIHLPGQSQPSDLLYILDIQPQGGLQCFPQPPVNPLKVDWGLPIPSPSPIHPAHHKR
platelet integrin αIIbβ3, sequence (P08514 891-1039 partner limits assumed): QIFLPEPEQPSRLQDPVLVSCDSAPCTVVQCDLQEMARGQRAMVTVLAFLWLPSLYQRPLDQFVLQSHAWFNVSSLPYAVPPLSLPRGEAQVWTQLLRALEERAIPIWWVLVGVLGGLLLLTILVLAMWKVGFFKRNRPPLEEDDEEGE
platelet integrin αIIbβ3, sequence (P05106 27-788): as the sequence (P05106 27-788 N365S) above, with S339N counted along it

SMILES | IC50 (αVβ3^N/S [1]) [nM] | IC50 (αVβ3^N/S [1]; converted) [nM] | AP5 LIBS expression (αVβ3) | Patients with severe thrombocytopenia (platelet integrin αIIbβ3) [%] | Binding to αVβ3 (αVβ3^N/S [2])
N=C(N)NCCC[C@@H]1NC(=O)CCSSC[C@@H](C(N)=O)NC(=O)[C@@H]2CCCN2C(=O)[C@@H](Cc2c[nH]c3ccccc23)NC(=O)[C@H](CC(=O)O)NC(=O)CNC1=O [R-epti-D] ([Mpa]RGD[dW]PC-NH2; disulfide 1-7) | 2080 | ~2000 | reduced AP5 LIBS expression | – | –
N=C(N)NCCCC[C@@H]1NC(=O)CCSSC[C@@H](C(N)=O)NC(=O)[C@@H]2CCCN2C(=O)[C@H](Cc2c[nH]c3ccccc23)NC(=O)[C@H](CC(=O)O)NC(=O)CNC1=O [eptifibatide] ([Mpa][hArg]GDWPC-NH2; disulfide 1-7) | – | – | – | ~2 | does not bind
